Assay results from patent publication US20100029554A1, “Composition and Methods for Treatment of Congestive Heart Failure” (Amylin Pharmaceuticals, Inc., priority 2006, published 2010).
Where no end group is shown, it is not given here.

Key:
[1] = target: T1, GLP-1 receptors (RINm5f cell membranes) (Rattus norvegicus, UniProt P32301); experiment: Receptor binding assay, RBA GLP (RIN); settings: [125I] human GLP-1 displacement
T1 construct: RINm5f cells expressing endogenous GLP-1 receptors; endogenous in cells; host or cells: RINm5f cell membranes
T1 sequence (P32301 22-463): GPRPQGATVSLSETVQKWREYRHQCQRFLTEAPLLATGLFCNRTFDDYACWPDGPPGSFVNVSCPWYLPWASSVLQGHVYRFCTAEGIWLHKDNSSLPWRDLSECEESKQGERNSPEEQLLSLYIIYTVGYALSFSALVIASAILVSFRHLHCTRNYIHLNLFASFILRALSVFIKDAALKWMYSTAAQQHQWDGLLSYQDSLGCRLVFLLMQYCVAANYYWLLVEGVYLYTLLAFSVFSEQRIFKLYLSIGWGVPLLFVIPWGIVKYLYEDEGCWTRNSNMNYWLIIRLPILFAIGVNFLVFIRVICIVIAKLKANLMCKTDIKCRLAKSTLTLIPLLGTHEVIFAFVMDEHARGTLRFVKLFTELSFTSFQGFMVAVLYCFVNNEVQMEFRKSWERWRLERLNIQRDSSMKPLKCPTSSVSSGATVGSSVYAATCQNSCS
Excerpt: The well contents are harvested onto 96 well glass fiber plates using a Perkin Elmer plate harvestor. Dried glass fiber plates are combined with scintillant and counted on a Perkin Elmer scintillation counter.

[2] = system: GLP/GIP/CT cyclase, RIN-m5F cells; experiment: GLP/GIP/CT Cyclase (RIN) assay; assay type: cell-based, rat; settings: cAMP, values without **
Description: GLP/GIP/CT Cyclase (RIN) Assay
(§1) Five μl of serially diluted peptides are transferred to the 384-well assay plate. Rat pancreas insulinoma cells (RIN-m5F) are detached from a tissue culture flask with Versene and washed once in buffer. Then RIN-m5F cells are resusupended in buffer at 2.5×10^6 cells/ml. Then 10 μl cells (2.5×10^4 cells) are added to all wells of the assay plate and cells are stimulated at room temperature in the dark for 30 minutes. The reaction is terminated with 10 μl of lysis buffer and incubated at room temperature for 4 hrs in the dark. cAMP content is measured using Perkin Elmer AlphaScreen™ cAMP assay kit and results are read on a Perkin Elmer Fusion fluorometer. The assay is completed in 384-well plates at 25 microliter volumes.

[3] = system: NH/Swiss mice; experiment: Glucose lowering assay; assay type: in vivo, mouse; settings: IP
Description: Female NH/Swiss mice (˜8-20 weeks of age), (Harlan, Indianapolis, Ind., USA), housed 3 mice per cage, are allowed ad libitum access to food and water until the start of the experiment. At two hours prior to treatment, access to food is restricted.
At the time of treatment, the tip of the tail is pricked with a needle to obtain 1 μl blood as a “pre-treatment” control blood sample. Immediately thereafter, each mouse is injected intraperitoneally (IP) with a test sample (1 nmol/kg or 2 nmol/kg) or 200 μl vehicle (10% DMSO saline). Additional blood samples are collected at 30, 60, 120, 180, and 240 minutes after injection.
Blood glucose is measured with a glucose oxidase biosensor (OneTouch® Ultra® (LifeScan, Inc., a Johnson & Johnson Company, Milpitas, Calif.)). At each time point, the effect of the test sample is expressed as the percent change in blood glucose relative to mice injected with vehicle only. Test samples and vehicle controls are also compared to their respective “pre-treatment” controls.
Significant test sample effects are identified by ANOVA (p<0.05). Where a significant difference existed, test means are compared to the control mean with Dunnett's post test using GraphPad Prism version 4.00 for Windows, GraphPad Software, San Diego Calif. USA, www.graphpad.com).

[4] = system: NIH:Swiss mice; experiment: Food intake assay; assay type: in vivo, mouse; settings: IP, dose 10 nmol/kg
Description: All mice (NIH:Swiss mice) are housed in a stable environment of 22 (±2)° C., 60 (±10)% humidity and a 12:12 light:dark cycle; with lights on at 0300. Mice are housed in groups of three in standard cages with ad libitum access to food (Teklad: LM 485; Madison, Wis.) and water except as noted, for at least two weeks before the experiments.
All experiments are conducted between the hours of 0700 and 0900. The mice are food deprived (food removed at 1530 hr from all animals on day prior to experiment). […] The food pellet is weighed at 30-minute, 1-hr, and 2-hr intervals to determine the amount of food eaten.
Significant test sample effects are identified by ANOVA (p<0.05). Where a significicant difference exists, test means are compared to the control mean using Dunnett's test. One-way ANOVA with Dunnett's post test is performed using GraphPad Prism version 3.01 for Windows, GraphPad Software, San Diego Calif.

[5] = Plasma stability; assay type: in vitro ADME; settings: 20 μg/mL in plasma, 37° C., 0-5 hours
Description: To assess stability, the compound of interest is spiked into plasma at a concentration of 20 μg/mL. It is incubated at 37° C. for 0, 1, 2 3, 4, 5 hours in triplicate. At each time point, MeOH is added to a 96 well microtiter plate and then sample is added in a ratio of 1 part sample to 4 parts MeOH to quench the digestion reaction. Samples are mixed with multi-channel pipette or liquid handler. The plate is then centrifuged for 10 minutes and placed in an autosampler kept at 10° C. Samples are then injected into a mass spectrometer (API 3000, Applied Biosystems) equipped with an autosampler (Leap HTC Pal) and HPLC pumps (Shimadzu LC-10ADVP).

[6] = system: GLP-1 cyclase, rat thyroid carcinoma cells (6-23); experiment: GLP-1 Cyclase (6-23) assay; assay type: cell-based; settings: cAMP, 6-23 cells; values marked **
Description: as §1, with “thyroid carcinoma” for “pancreas insulinoma”, “(6-23)” for “(RIN-m5F)”, “6-23” for “RIN-m5F”, “3.0×10^6” for “2.5×10^6”, “(3.0×10^4” for “(2.5×10^4”, “μl” for “microliter”

Compound | IC50 [1] | EC50 [2] | GLU LOWERING AUC240 @1 nmol/kg ([3]; 1 nmol/kg) | FOOD INTAKE at 60 min [4] | plasma stability as compared to native GLP-1 [5] | EC50 [6] | GLU LOWERING AUC240 @2 nmol/kg ([3]; 2 nmol/kg, change in blood glucose relative to vehicle) | plasma stability as compared to native GLP-1 ([5]; second, narrower list of b152)
CC[C@H](C)[C@H](NC(=O)[C@@H]1CCCN1C(=O)[C@@H](NC(=O)CNC(=O)CNC(=O)CNC(=O)[C@H](CCCNC(=N)N)NC(=O)CNC(=O)[C@H](CCCCN)NC(=O)[C@@H](NC(=O)[C@H](CC(C)C)NC(=O)[C@H](Cc1c[nH]c2ccccc12)NC(=O)[C@H](C)NC(=O)[C@@H](NC(=O)[C@H](Cc1ccccc1)NC(=O)[C@H](CCC(=O)O)NC(=O)[C@H](CCCCN)NC(=O)[C@H](C)NC(=O)[C@H](C)NC(=O)[C@H](CCC(N)=O)NC(=O)CNC(=O)[C@H](CCC(=O)O)NC(=O)[C@H](CC(C)C)NC(=O)[C@H](Cc1ccc(O)cc1)NC(=O)[C@H](CO)NC(=O)[C@H](CO)NC(=O)[C@@H](NC(=O)[C@H](CC(=O)O)NC(=O)[C@H](CO)NC(=O)[C@@H](NC(=O)[C@H](Cc1ccccc1)NC(=O)[C@@H](NC(=O)CNC(=O)[C@H](CCC(=O)O)NC(=O)[C@H](C)NC(=O)[C@@H](N)Cc1c[nH]cn1)[C@@H](C)O)[C@@H](C)O)C(C)C)[C@@H](C)CC)C(C)C)[C@@H](C)CC)C(N)=O [Cmpd 4957] | 0.1 nM | 0.51 nM | – | – | – | – | – | –
CC[C@H](C)[C@H](NC(=O)[C@H](Cc1ccccc1)NC(=O)[C@H](CCC(=O)O)NC(=O)[C@H](CCCCN)NC(=O)[C@H](C)NC(=O)[C@H](C)NC(=O)[C@H](CCCCN)NC(=O)[C@H](CCC(=O)O)NC(=O)[C@H](CCC(=O)O)NC(=O)[C@H](CC(C)C)NC(=O)[C@H](CCC(N)=O)NC(=O)[C@H](CCCCN)NC(=O)[C@H](CO)NC(=O)[C@H](CC(C)C)NC(=O)[C@H](CC(=O)O)NC(=O)[C@H](CO)NC(=O)[C@@H](NC(=O)[C@H](Cc1ccccc1)NC(=O)[C@@H](NC(=O)CNC(=O)[C@H](CCC(=O)O)NC(=O)CNC(=O)[C@@H](N)Cc1c[nH]cn1)[C@@H](C)O)[C@@H](C)O)C(=O)N[C@@H](CCC(=O)O)C(=O)N[C@@H](Cc1c[nH]c2ccccc12)C(=O)N[C@@H](CC(C)C)C(=O)N[C@@H](CCCCN)C(=O)N[C@@H](CCC(N)=O)C(=O)NCC(=O)NCC(=O)N1CCC[C@H]1C(=O)N[C@@H](CO)C(=O)N[C@@H](CO)C(=O)NCC(=O)N[C@@H](C)C(=O)N1CCC[C@H]1C(=O)N1CCC[C@H]1C(=O)N1CCC[C@H]1C(=O)N[C@@H](CO)C(N)=O [Cmpd 5100] | 1.8 nM | – | −16% | −66% | increased plasma stability | – | – | –
CC[C@H](C)[C@H](NC(=O)[C@H](Cc1ccccc1)NC(=O)[C@H](CC(C)C)NC(=O)[C@H](CCCNC(=N)N)NC(=O)[C@@H](NC(=O)[C@H](C)NC(=O)[C@H](CCC(=O)O)NC(=O)[C@H](CCC(=O)O)NC(=O)[C@H](CCC(=O)O)NC(=O)[C@H](CC(C)C)NC(=O)[C@H](Cc1ccc(O)cc1)NC(=O)[C@H](CCC(=O)O)NC(=O)[C@@H](NC(=O)[C@@H](NC(=O)[C@H](CC(=O)O)NC(=O)[C@H](CC(N)=O)NC(=O)[C@@H](NC(=O)[C@H](Cc1ccc(O)cc1)NC(=O)[C@@H](NC(=O)CNC(=O)[C@H](CCC(=O)O)NC(=O)CNC(=O)[C@@H](N)Cc1c[nH]cn1)[C@@H](C)O)[C@@H](C)O)C(C)C)[C@@H](C)O)C(C)C)C(=O)N[C@@H](CCC(=O)O)C(=O)N[C@@H](Cc1c[nH]c2ccccc12)C(=O)N[C@@H](CC(C)C)C(=O)N[C@@H](CCCCN)C(=O)N[C@@H](CCC(N)=O)C(=O)NCC(=O)NCC(=O)N1CCC[C@H]1C(=O)N[C@@H](CO)C(=O)N[C@@H](CO)C(=O)NCC(=O)N[C@@H](C)C(=O)N1CCC[C@H]1C(=O)N1CCC[C@H]1C(=O)N1CCC[C@H]1C(=O)N[C@@H](CO)C(N)=O [Cmpd 5130] | – | 0.89 nM | – | – | increased plasma stability | 0.0544 nM | −22% | –
HGEGTFTSDLVKILEAEAVRKFIEFLKNGGPSSGAPPPS-NH2 [Cmpd 5529] | – | – | – | – | – | 0.388 nM | – | –
HGEGTFTSDVTEYLEEEAVRLFIEWLKQGGPSSGAPPPS-NH2 [Cmpd 5129] | 3 nM | 1.09 nM | – | – | increased plasma stability | – | – | increased plasma stability
